{"source": "paper PMC5949604", "assay": "aziridine aldehyde dimer (S-serine-type dimer 3, parent) + tBuNC multicomponent (disrupted Ugi) head-to-tail macrocyclisation of N-terminal Pro peptides; linker inserts CH-CH-N between Pro N and C-terminal C=O (forms Pro N-C bond and C-terminal acyl aziridine N-C(=O) bond)", "settings": "the molecule shown is the open-chain precursor, TFE, 100.0 mM"}
{"smiles": "CC(C)C[C@H](NC(=O)CNC(=O)[C@]1(C)CCCN1)C(=O)NCC(=O)N[C@H](Cc1ccccc1)C(=O)O", "note": "[H-L-alpha-MePro-Gly-Leu-Gly-D-Phe-OH]", "values": [{"measurement": "ring closure, isolated yield", "setting": "18-membered ring", "result": 0, "unit": "%"}]}
{"smiles": "CC(C)C[C@H](NC(=O)CNC(=O)C[C@@H]1CCCN1)C(=O)NCC(=O)N[C@H](Cc1ccccc1)C(=O)O", "note": "[H-L-beta-homoPro-Gly-Leu-Gly-D-Phe-OH]", "values": [{"measurement": "ring closure, isolated yield", "setting": "19-membered ring", "result": 0, "unit": "%"}]}
{"smiles": "CC(C)C[C@H](NC(=O)[C@H](COC(C)(C)C)NC(=O)C[C@@H]1CCCN1)C(=O)N[C@@H](Cc1ccc(OC(C)(C)C)cc1)C(=O)N[C@@H](Cc1ccccc1)C(=O)O", "note": "[H-L-beta-homoPro-Ser(tBu)-Leu-Tyr(tBu)-Phe-OH]", "values": [{"measurement": "ring closure, isolated yield", "setting": "19-membered ring", "result": 0, "unit": "%"}]}
{"smiles": "CC(C)C[C@H](NC(=O)[C@H](C)NC(=O)[C@@H]1CCCN1)C(=O)NCC(=O)N[C@@H](Cc1ccccc1)C(=O)O", "note": "[H-Pro-Ala-Leu-Gly-Phe-OH]", "values": [{"measurement": "ring closure, isolated yield", "setting": "18-membered ring, 4.0 h", "result": 12, "unit": "%"}]}
{"smiles": "CC(C)C[C@@H](NC(=O)CNC(=O)[C@@H]1CCCN1)C(=O)NCC(=O)N[C@H](CCCCNC(=O)OC(C)(C)C)C(=O)O", "note": "[H-Pro-Gly-D-Leu-Gly-D-Lys(Boc)-OH]", "values": [{"measurement": "ring closure, isolated yield", "setting": "18-membered ring, 6.0 h", "result": 0, "unit": "%"}]}
{"smiles": "CC(C)C[C@@H](NC(=O)CNC(=O)[C@@H]1CCCN1)C(=O)NCC(=O)N[C@@H](Cc1ccccc1)C(=O)O", "note": "[H-Pro-Gly-D-Leu-Gly-Phe-OH]", "values": [{"measurement": "ring closure, isolated yield", "setting": "18-membered ring, 4.0 h", "result": 28, "unit": "%"}]}
{"smiles": "CC(C)C[C@H](NC(=O)CNC(=O)[C@@H]1CCCN1)C(=O)N[C@@H](C)C(=O)N[C@@H](Cc1ccccc1)C(=O)O", "note": "[H-Pro-Gly-Leu-Ala-Phe-OH]", "values": [{"measurement": "ring closure, isolated yield", "setting": "18-membered ring, 6.0 h", "result": 9, "unit": "%"}]}
{"smiles": "CC(C)C[C@H](NC(=O)CNC(=O)[C@@H]1CCCN1)C(=O)NCC(=O)N[C@H](Cc1ccccc1)C(=O)O", "note": "[H-Pro-Gly-Leu-Gly-D-Phe-OH]", "values": [{"measurement": "ring closure, isolated yield", "setting": "18-membered ring, 4.0 h", "result": 0, "unit": "%"}]}
{"smiles": "CC(C)C[C@H](NC(=O)CNC(=O)[C@@H]1CCCN1)C(=O)NCC(=O)N[C@@H](CCCCNC(=O)OC(C)(C)C)C(=O)O", "note": "[H-Pro-Gly-Leu-Gly-Lys(Boc)-OH]", "values": [{"measurement": "ring closure, isolated yield", "setting": "18-membered ring, 6.0 h", "result": 23, "unit": "%"}]}
{"smiles": "CC(C)C[C@H](NC(=O)CNC(=O)[C@@H]1CCCN1)C(=O)NCC(=O)N[C@@H](Cc1ccccc1)C(=O)O", "note": "[H-Pro-Gly-Leu-Gly-Phe-OH]", "values": [{"measurement": "ring closure, isolated yield", "setting": "18-membered ring, 4.0 h", "result": 34, "unit": "%"}]}
{"smiles": "CC(C)C[C@H](NC(=O)CNC(=O)[C@@H]1CCCN1)C(=O)N[C@@H](CCCCNC(=O)OC(C)(C)C)C(=O)O", "note": "[H-Pro-Gly-Leu-Lys(Boc)-OH]", "values": [{"measurement": "ring closure, isolated yield", "setting": "15-membered ring, 6.0 h", "result": 0, "unit": "%"}]}
{"smiles": "O=C(CNC(=O)[C@@H]1CCCN1)N[C@@H](Cc1ccccc1)C(=O)O", "note": "[H-Pro-Gly-Phe-OH]", "values": [{"measurement": "ring closure, isolated yield", "setting": "12-membered ring, 4.0 h", "result": 0, "unit": "%"}]}
{"smiles": "CC(C)C[C@H](NC(=O)[C@H](CC(C)C)N(C)C(=O)[C@@H]1CCCN1)C(=O)NCC(=O)N[C@@H](Cc1ccccc1)C(=O)O", "note": "[H-Pro-N-Me-Leu-Leu-Gly-Phe-OH]", "values": [{"measurement": "ring closure, isolated yield", "setting": "18-membered ring", "result": 0, "unit": "%"}]}
{"smiles": "CC(C)C[C@H](NC(=O)CN(C)C(=O)[C@@H]1CCCN1)C(=O)NCC(=O)N[C@@H](Cc1ccccc1)C(=O)O", "note": "[H-Pro-Sar-Leu-Gly-Phe-OH]", "values": [{"measurement": "ring closure, isolated yield", "setting": "18-membered ring", "result": 0, "unit": "%"}]}
{"smiles": "CC(C)C[C@H](NC(=O)[C@H](COC(C)(C)C)NC(=O)[C@@H]1CCCN1)C(=O)NCC(=O)N[C@@H](Cc1ccccc1)C(=O)O", "note": "[H-Pro-Ser(tBu)-Leu-Gly-Phe-OH]", "values": [{"measurement": "ring closure, isolated yield", "setting": "18-membered ring, 4.0 h", "result": 49, "unit": "%"}]}
{"smiles": "CC(C)C[C@H](NC(=O)[C@H](COC(C)(C)C)NC(=O)[C@@H]1CCCN1)C(=O)N[C@@H](Cc1ccc(OC(C)(C)C)cc1)C(=O)N[C@@H](Cc1ccccc1)C(=O)O", "note": "[H-Pro-Ser(tBu)-Leu-Tyr(tBu)-Phe-OH]", "values": [{"measurement": "ring closure, isolated yield", "setting": "18-membered ring, 4.0 h", "result": 22, "unit": "%"}]}
